Laboratory results reported in US5843402A, “Synthetic peptides for use in thrombus detection” (Antisoma Research Limited, priority 1989, dated 1998).

Columns and labels:
[1] = system: clotted blood; assay: Binding of radiolabelled peptides to clotted blood
Description: (§1) The results (Table 2) indicate that all four peptides can bind platelets in ADP stimulated blood and that higher incorporation can be achieved In clotted blood.
(§2) Iodogen tubes were prepared by dissolving Iodogen (1, 3, 4, 6-Tetrachloro-3α, 6α-diphenylglycouril) in chloroform at a concentration of 1 mg.ml-^1. Aliquots of 50 μl (50 μg Iodogen) were dispensed into polypropylene cryo-tubes and the chloroform evaporated to dryness. These tubes were then stored dessicated at -20° C. until required.
(§3) Prior to radiolabelling the peptides were dissolved in phosphate buffered saline (PBS) at a concentration of 50 mg.ml-^1. RGDSYC and […] were first dissolved in a small volume of dimethyl sulphoxide (DMSO) such that the final concentration of DMSO in PBS was 1% v/v.
(§4) Iodogen tubes were equilibrated to room temperature before the addition of 200 μl peptide solution and 1-10 μl of ^123 I (in aqueous solution). The reaction mixture was then left for 15min at room temperature with occasional shaking. Following the incubation period the reaction mixture was removed and passed through a Sephadex G10 column which had been equilibrated with PBS. The column, which separates radiolabelled peptide from free iodine was eluted with PBS and 2 ml fractions collected. Radioactivity in the fractions was measured and the eluted peptides, represented by the first radioactive peak from the column, collected and stored at 4° C. until required.

[2] = system: activated platelets in whole blood (ADP stimulated blood); assay: Binding of radiolabelled peptides to ADP stimulated blood
Description: as §1, §2, §3, §4

[3] = system: ADP (1 × 10^-5 M)-induced platelet aggregation; assay: Inhibition of ADP-induced platelet aggregation; format: cell-based
Description: The effect of these peptides on ADP-induced platelet aggregation was determined and compared with peptide RGDS which is known to inhibit platelet aggregation.

RGDSCRGDSY
bound peptide ([1]; 1 ng radiolabelled peptide): 0.28 ng
bound peptide ([1]; 10 ng radiolabelled peptide): 2.64 ng
bound peptide ([1]; 100 ng radiolabelled peptide): 29.33 ng
bound peptide ([2]; 1 ng radiolabelled peptide): 0.01 ng
bound peptide ([2]; 10 ng radiolabelled peptide): 0.85 ng
bound peptide ([2]; 100 ng radiolabelled peptide): 9.07 ng
percentage inhibition of ADP-induced platelet aggregation ([3]; peptide 0.1 mM): 17%
percentage inhibition of ADP-induced platelet aggregation ([3]; peptide 0.2 mM): 57%
percentage inhibition of ADP-induced platelet aggregation ([3]; peptide 0.4 mM): 79%
